Measured values: PMC8765275, “Self-Inhibitory Peptides Targeting the Neisseria gonorrhoeae MtrCDE Efflux Pump Increase Antibiotic Susceptibility” (Antimicrobial Agents and Chemotherapy, 2022)
Read-outs that look alike come from different tables or passages of the source.

Legend:
[1] = test system: N. gonorrhoeae strains FA1090, WHO K, WHO P, WHO X; assay: Antibiotic MIC with peptide cotreatment, summarised over the strains tested; format: cell-based, Neisseria gonorrhoeae; conditions: for Reduction of the MICs of the four antibiotics tested on cotreatment: for at least one N. gonorrhoeae strain
Protocol: (§1) Six peptides were tested against N. gonorrhoeae strains with various antimicrobial resistance phenotypes and with either standard MtrCDE expression (strain FA1090) or MtrCDE overexpression (strains WHO K, WHO P, and WHO X [15, 16]) (Table 2). […] Subsequent experiments were conducted with subinhibitory peptide concentrations (20 μg/ml for FA1090; 50 μg/ml for WHO K, WHO P, and WHO X).
(§2) Experiments were performed using a microdilution method in triplicate wells.
(§3) High-level resistance, resistance, intermediate resistance, and susceptibility phenotypes were determined per previously determined MIC values ([15]) using the interpretive criteria published by the Swedish Reference Group on Antibiotics (SGRA) ([25]). For cotreatment assays (peptide plus antibiotic), the antibiotic dilutions were made up in GC broth that contained the peptide at the appropriate concentration. The experiments were performed with peptide-only and antibiotic-only controls. Each well was inoculated with 10 μl of the appropriate N. gonorrhoeae strain at an optical density (absorbance at 600 nm) of 0.1 (∼1 × 10^6 CFU/ml). All experiments were performed with triplicate samples on at least three occasions.

[2] = test system: N. gonorrhoeae strain WHO X ΔmtrE; assay: Antibiotic MIC with or without P-MtrE1, mtrE knockout strain; format: cell-based, Neisseria gonorrhoeae
Protocol: (§4) N. gonorrhoeae strains used in this study include FA1090 (standard MtrCDE expression) ([22]), WHO K (MtrCDE overexpression) ([15]), WHO P (MtrCDE overexpression) ([15]), and WHO X (MtrCDE overexpression) ([16]). Wild-type strains were grown on GC agar or in GC broth (Oxoid) supplemented with IsoVitaleX (Bacto) at 37°C in 5% CO2. mtrE knockout strains of N. gonorrhoeae WHO X and WHO P (ΔmtrE) were generated by transforming bacteria with 1 μg of a linear DNA fragment (IDT) containing aminoglycoside 3′-phosphotransferase gene (NCBI accession no. VTT49712.1) flanked by 500-bp terminal fragments of the N. gonorrhoeae FA1090 mtrE gene (GenBank accession no. AE004969.1, positions 1 to 500 and 903 to 1403), as well as the gonococcal DNA uptake sequence ([…]) at the 5′ end ([23]). E. coli strain DH5α, used for cloning, was grown using Luria-Bertani agar or broth (Oxoid) at 37°C. The media were supplemented with 100 μg/ml ampicillin or 50 μg/ml kanamycin, as required.
as §2, §3

[3] = test system: N. gonorrhoeae strain WHO P ΔmtrE; assay: as above; format: cell-based, Neisseria gonorrhoeae
Protocol: as §4, §2, §3

[4] = test system: N. gonorrhoeae strain WHO P (MtrCDE overexpression); assay: microbe, parasite or virus in culture; format: cell-based, Neisseria gonorrhoeae; conditions: for Reduction of azithromycin MIC compared with that for MtrCDE knockout versus wild-type strains: 50 μg/ml peptide, knockout comparison from ref 6; for Antimicrobial resistance phenotype, AZM, in the presence of peptide: cotreatment with 50 μg/ml peptide, EUCAST breakpoints; for MIC: Neisseria gonorrhoeae, 20 h
Protocol: as §1, §2, §3

[5] = test system: N. gonorrhoeae strain WHO X (MtrCDE overexpression); assay: microbe, parasite or virus in culture; format: cell-based, Neisseria gonorrhoeae; conditions: for MIC: Neisseria gonorrhoeae, 20 h
Protocol: as §1, §2, §3

[6] = test system: N. gonorrhoeae strain FA1090 (standard MtrCDE expression); assay: MIC, broth microdilution (CLSI), antibiotic alone, peptide alone or peptide cotreatment; format: cell-based; conditions: Neisseria gonorrhoeae
Protocol: as §1, §2, §3

[7] = test system: N. gonorrhoeae strain WHO K (MtrCDE overexpression); assay: microbe, parasite or virus in culture; format: cell-based, Neisseria gonorrhoeae; conditions: for MIC: Neisseria gonorrhoeae, 20 h
Protocol: as §1, §2
as §3, with “High-level resistance, resistance, intermediate resistance, and susceptibility phenotypes were determined per previously determined MIC values ([15]) using the interpretive criteria published by the Swedish Reference Group on Antibiotics (SGRA) ([25]).” left out

[8] = gentamicin is not subject to efflux by MtrCDE
[9] = presence or absence of subinhibitory P-MtrE1 concentrations (0 or 6.5 μg/ml, Fig. 2)
[10] = read-out: MIC of AZM (azithromycin)
[11] = WHO K, antibiotic alone, EUCAST breakpoints
[12] = read-out: MIC of ERY (erythromycin)
[13] = read-out: MIC of CRO (ceftriaxone)

(KFF)3KGSG HLSLIATV [P-MtrE1, self-derived peptide, 8 amino acids of MtrE fused to (KFF)3K cell-permeating peptide and GSG linker]
Reduction of the MICs of the four antibiotics tested on cotreatment [1]: at least 2 fold
Impact of peptide on susceptibility to gentamicin [2, 8]: no impact
Change in antibiotic susceptibility to ciprofloxacin or ceftriaxone with peptide [2, 9]: no change
Impact of peptide on susceptibility to gentamicin [3, 8]: no impact
Change in antibiotic susceptibility to erythromycin or azithromycin with peptide [3, 9]: no change
Impact of peptide on susceptibility to gentamicin ([4]; WHO P wild-type, gentamicin is not subject to efflux by MtrCDE): no impact
Reduction of azithromycin MIC compared with that for MtrCDE knockout versus wild-type strains ([4]; WHO P): same magnitude
Peptide concentration able to reduce the MICs of erythromycin and azithromycin ([4]; WHO P, concentrations as low as): ≤ 6.25 µg/mL
Antimicrobial resistance phenotype, AZM, in the presence of peptide ([4]; WHO P): S (S ≤ 0.25)
Impact of peptide on susceptibility to gentamicin ([5]; WHO X wild-type, gentamicin is not subject to efflux by MtrCDE): no impact
Reduction of ciprofloxacin and ceftriaxone MICs compared with that between MtrCDE knockout and wild-type strains ([5]; WHO X, 50 μg/ml peptide, knockout comparison from ref 6): same magnitude
Peptide concentration able to reduce the MICs of ciprofloxacin and ceftriaxone ([5]; WHO X, concentrations as low as): ≤ 6.25 µg/mL

HLSLIATV [P-MtrE1a]
Effect of peptide on susceptibility to the antibiotics tested ([1]; control peptides, any strain against which P-MtrE1 had an effect): not able to increase susceptibility to any antibiotic

CC[C@H]1OC(=O)[C@H](C)[C@@H](O[C@H]2C[C@@](C)(OC)[C@@H](O)[C@H](C)O2)[C@H](C)[C@@H](O[C@@H]2O[C@H](C)C[C@H](N(C)C)[C@H]2O)[C@](C)(O)C[C@@H](C)CN(C)[C@H](C)[C@@H](O)[C@]1(C)O [AZM, azithromycin]
MIC ([6]; read-out: MIC of AZM (azithromycin), antibiotic alone, microdilution per CLSI, GC broth, 20 h, triplicate wells): 0.063 µg/mL
MIC [4, 10]: 4 µg/mL
MIC [5, 10]: 0.5 µg/mL
MIC [7, 10]: 0.25 µg/mL
Antimicrobial resistance phenotype, AZM [7, 11]: S (S ≤ 0.25)

CC[C@H]1OC(=O)[C@H](C)[C@@H](O[C@H]2C[C@@](C)(OC)[C@@H](O)[C@H](C)O2)[C@H](C)[C@@H](O[C@@H]2O[C@H](C)C[C@H](N(C)C)[C@H]2O)[C@](C)(O)C[C@@H](C)C(=O)[C@H](C)[C@@H](O)[C@]1(C)O [ERY, erythromycin, reference compound]
MIC ([6]; antibiotic alone, microdilution per CLSI, GC broth, 20 h, triplicate wells, read-out: MIC of ERY (erythromycin)): 0.2 µg/mL
MIC [4, 12]: 16 µg/mL
MIC [5, 12]: 2 µg/mL

(KFF)3KGSGVMKLRRQI [P-MtrC1, self-derived peptide, 8 amino acids of MtrC fused to (KFF)3K cell-permeating peptide and GSG linker]
Reduction of the MICs of the four antibiotics tested on cotreatment [1]: at least 2 fold
Reduction of azithromycin MIC compared with that for MtrCDE knockout versus wild-type strains ([4]; WHO P): same magnitude
Antimicrobial resistance phenotype, AZM, in the presence of peptide ([4]; WHO P): I

(KFF)3KGSGDAAHLSLIATVAKAYFNERY [P-MtrE2, self-derived peptide, 20 amino acids of MtrE fused to (KFF)3K cell-permeating peptide and GSG linker]
Reduction of the MICs of the four antibiotics tested on cotreatment [1]: at least 2 fold

CO/N=C(\C(=O)N[C@@H]1C(=O)N2C(C(=O)O)=C(CSc3nc(=O)c(=O)[nH]n3C)CS[C@H]12)c1csc(N)n1 [CRO, ceftriaxone]
MIC ([6]; read-out: MIC of CRO (ceftriaxone), antibiotic alone, microdilution per CLSI, GC broth, 20 h, triplicate wells): < 0.0078 µg/mL
MIC [4, 13]: 0.004 µg/mL
MIC [5, 13]: 2 µg/mL
MIC [7, 13]: 0.031 µg/mL
Antimicrobial resistance phenotype, CRO [7, 11]: S (S ≤ 0.125)

(KFF)3KGSGVFLVPLFY [P-MtrD1, self-derived peptide, 8 amino acids of MtrD fused to (KFF)3K cell-permeating peptide and GSG linker]
Reduction of the MICs of the four antibiotics tested on cotreatment [1]: at least 2 fold
